The results in this text go back to patent US8268293B2, “UV protection” (Merck Patent GmbH, priority 2005, dated 2012).

A short description of data set [1]: Oxidation in UV light in the presence of further antioxidants: UV/VIS spectrum of beta-carotene emulsions on irradiation.
Data set [2] is described as follows: Oxidation in UV light: change in the UV spectrum on irradiation. It counts as physicochemical. Here is the method: The curves stand for the unirradiated substance (exposed to 0 kJ/m^2), after irradiation for 15 min (exposure to 86 kJ/m^2), after irradiation for 65 min (exposure to 373 kJ/m^2), after irradiation for 235 min (exposure to 1349 kJ/m^2) and after irradiation for 405 min (exposure to 2325 kJ/m^2).

For the compound `CCCCC(CC)COC(=O)C(Cc1cc(OC)c(O)c(OC)c1)C(=O)OCC(CC)CCCC` (stereo not shown), in data set [1] (emulsion with 0.5% beta-carotene and 4% compound vs emulsion without compound, irradiated 90 min, beta-carotene absorption at 440-480 nm), the “effect on beta-carotene degradation in the emulsion on UV irradiation” value is given as “stabilises the beta-carotene”. Also, the “Emax of the absorption of the reaction product in the UV-A region” value in data set [1] (emulsion with 0.5% by weight beta-carotene and 4% by weight compound, irradiated 90 min (curve B)) is recorded as 320-340 nm. For the same compound, in data set [2] (after irradiation for 65 min (373 kJ/m^2), xenon lamp 95.69 W/m^2, 290-400 nm, increases further on longer irradiation), the “UV absorption in the UV-A region on irradiation with UV light” value is listed as “significantly increased UV absorption”. Besides, the “Emax of the UV-A absorption developed on irradiation” value in data set [2] (neat substance, after UV irradiation) is 320-340 nm.
